{"source": "patent US6620961B1", "about": "“Biarylalkylenecarbamic acid derivatives and bacteriocides for agricultural and horticultural use” (Kumiai Chemical Industry Co., Ltd., priority 1997, dated 2003)", "key": {"Venturia inaequalis": {"system": "Venturia inaequalis", "assay": "Test for Preventive Effect on Apple Scab", "assay_type": "in vivo", "design": "key: A: No diseased area; B: Diseased area of less than 25%; C: Diseased area of at least 25% but less than 50%; Diseased area of at least 50%", "conditions": "14 days after inoculation; for Evaluation (diseased areas of the upper two of the inoculated leaves): apple seedlings, wettable powder at 500 ppm active ingredient, preventive; for Evaluation (diseased area of the upper two inoculated leaves): apple seedlings (Kogyoku), 500 ppm active ingredient, 20 ml per pot", "protocol": "[table] Test for Preventive Effect on Apple Scab 5 apple seeds (variety: Kogyoku) were sown in each 9 cm×9 cm polyvinyl chloride pot and grown in a greenhouse for 20 days. […] Then, the seedlings were inoculated with Venturia inaequalis spores in suspension by spraying and immediately placed in a moist chamber at 22° C. for 48 hours. Thereafter, the seedlings were placed in a greenhouse for development of the disease. 14 days after the inoculation, the diseased areas of the upper two of the inoculated leaves were observed and evaluated on the basis of the standards shown in Table 59."}, "Erysiphe graminis": {"system": "Erysiphe graminis", "assay": "Test for Preventive Effect on Wheat Powdery Mildew", "assay_type": "in vivo", "design": "key: A: No diseased area; B: Diseased area of less than 25%; C: Diseased area of at least 25% but less than 50%; Diseased area of at least 50%", "conditions": "wheat seedlings (Norin-61-go), 500 ppm active ingredient, 10 ml per pot, 10 days after inoculation", "protocol": "[table] Test for Preventive Effect on Wheat Powdery Mildew 9 wheat seeds (variety: […] Then, the seedlings were inoculated with […] graminis spores in suspension and placed in a greenhouse at 25 to 30° C. 10 days after the inoculation, the total diseases area of the first leaves in each pot was observed and evaluated on the basis of the standards shown in Table 59. The results are shown in Tables 67 to 71."}, "[1]": {"system": "Pseudoperonospora cubensis", "assay": "Test for Preventive Effect on Cucumber Downy Mildew", "assay_type": "in vivo", "design": "key: A: No diseased area; B: Diseased area of less than 25%; C: Diseased area of at least 25% but less than 50%; Diseased area of at least 50%", "conditions": "cucumber seedlings, wettable powder at 500 ppm active ingredient, 7 days after inoculation", "protocol": "Test for Preventive Effect on Cucumber Downy Mildew 9 cucumber seeds (variety: Sagami-hanpaku) were sown in each 9 cmx9 cm polyvinyl chloride pot and grown in a greenhouse for 7 days. […] Then, the seedlings were inoculated with Pseudoperonospora cubensis zoosporangia in suspension by spraying and immediately placed in a moist chamber at 22° C. for 24 hours. Thereafter, the seedlings were placed in a greenhouse. 7 days after the inoculation, the total diseased area in each pot was observed and evaluated on the basis of the standards shown in Table 59. [table]"}, "Botrytis cinerea": {"system": "Botrytis cinerea", "assay": "Test for Preventive Effect on Cucumber Gray Mold", "assay_type": "in vivo", "design": "key: A: No diseased area; B: Diseased area of less than 25%; C: Diseased area of at least 25% but less than 50%; Diseased area of at least 50%", "conditions": "cotyledonary cucumber seedlings (Sagami-hanziro), 500 ppm active ingredient, 10 ml per pot, 3 days after inoculation", "protocol": "[table] Test for Preventive Effect on Cucumber Gray Mold 9 cucumber seeds (variety: Sagami-hanziro) were sown in each 9 cm−9 cm polyvinyl chloride pot and grown in a greenhouse for 7 days. […] Then, the seedlings were inoculated with milled Botrytis cinerea hyphae in solution by spraying and immediately placed in a moist chamber at 22° C. 3 days after the inoculation, the total diseased area in each pot was observed and evaluated on the basis of the standards shown in Table 59."}}, "data": [{"compound": "COC(=O)NCc1cccc(-c2ccccc2)c1", "note": "[1-1, Methyl N-(3-phenylbenzyl)carbamate]", "values": [{"measurement": "Evaluation (diseased areas of the upper two of the inoculated leaves)", "setting": "Venturia inaequalis", "result": "A"}, {"measurement": "Evaluation (total diseased area of the first leaves in each pot)", "setting": "Erysiphe graminis", "result": "A"}, {"measurement": "melting point", "result": "49 to 52", "unit": "°C"}]}, {"compound": "COC(=O)NCc1cccc(-c2cccc(C)c2)c1", "note": "[1-11]", "values": [{"measurement": "Evaluation (total diseased area in each pot)", "setting": "[1]", "result": "A"}, {"measurement": "Evaluation (diseased areas of the upper two of the inoculated leaves)", "setting": "Venturia inaequalis", "result": "A"}, {"measurement": "Evaluation (total diseased area of the first leaves in each pot)", "setting": "Erysiphe graminis", "result": "A"}, {"measurement": "Evaluation (total diseased area in each pot)", "setting": "Botrytis cinerea", "result": "B (Diseased area of less than 25%)"}]}, {"compound": "COC(=O)NCc1cccc(-c2ccc(C)cc2)c1", "note": "[1-12]", "values": [{"measurement": "Evaluation (total diseased area in each pot)", "setting": "[1]", "result": "B (Diseased area of less than 25%)"}, {"measurement": "Evaluation (diseased areas of the upper two of the inoculated leaves)", "setting": "Venturia inaequalis", "result": "A"}, {"measurement": "Evaluation (total diseased area of the first leaves in each pot)", "setting": "Erysiphe graminis", "result": "A"}, {"measurement": "Evaluation (total diseased area in each pot)", "setting": "Botrytis cinerea", "result": "A"}]}, {"compound": "CC(C)OC(=O)NCc1cccc(-c2ccccc2)c1", "note": "[1-150, Isopropyl N-(3-phenylbenzyl)carbamate]", "values": [{"measurement": "Evaluation (total diseased area of the first leaves in each pot)", "setting": "Erysiphe graminis", "result": "B (Diseased area of less than 25%)"}, {"measurement": "melting point", "result": "61 to 64", "unit": "°C"}]}, {"compound": "COC(=O)NCc1cccc(-c2ccccc2)c1C", "note": "[2-1, Methyl N-(2-methyl-3-phenylbenzyl)carbamate]", "values": [{"measurement": "Evaluation (total diseased area of the first leaves in each pot)", "setting": "Erysiphe graminis", "result": "A"}, {"measurement": "melting point", "result": "91 to 94", "unit": "°C"}]}, {"compound": "CCc1cccc(-c2ccc(F)c(CNC(=O)OC)c2)c1", "note": "[2-111]", "values": [{"measurement": "Evaluation (total diseased area in each pot)", "setting": "[1]", "result": "A"}, {"measurement": "Evaluation (diseased areas of the upper two of the inoculated leaves)", "setting": "Venturia inaequalis", "result": "A"}, {"measurement": "Evaluation (total diseased area of the first leaves in each pot)", "setting": "Erysiphe graminis", "result": "B (Diseased area of less than 25%)"}, {"measurement": "Evaluation (total diseased area in each pot)", "setting": "Botrytis cinerea", "result": "B (Diseased area of less than 25%)"}]}, {"compound": "COC(=O)NCc1cc(-c2cccc(Cl)c2)ccc1OC", "note": "[2-331]", "values": [{"measurement": "Evaluation (total diseased area in each pot)", "setting": "[1]", "result": "A"}, {"measurement": "Evaluation (diseased area of the upper two inoculated leaves)", "setting": "Venturia inaequalis", "result": "A"}, {"measurement": "Evaluation (total diseased area of the first leaves in each pot)", "setting": "Erysiphe graminis", "result": "B (Diseased area of less than 25%)"}, {"measurement": "Evaluation (total diseased area in each pot)", "setting": "Botrytis cinerea", "result": "A"}]}, {"compound": "COC(=O)NCc1cc(-c2ccc(C)cc2)ccc1OC", "note": "[2-334]", "values": [{"measurement": "Evaluation (total diseased area in each pot)", "setting": "[1]", "result": "B (Diseased area of less than 25%)"}, {"measurement": "Evaluation (diseased area of the upper two inoculated leaves)", "setting": "Venturia inaequalis", "result": "A"}, {"measurement": "Evaluation (total diseased area of the first leaves in each pot)", "setting": "Erysiphe graminis", "result": "B (Diseased area of less than 25%)"}, {"measurement": "Evaluation (total diseased area in each pot)", "setting": "Botrytis cinerea", "result": "A"}]}, {"compound": "COC(=O)NCc1cc(-c2cccc(C(F)(F)F)c2)ccc1OC", "note": "[2-343]", "values": [{"measurement": "Evaluation (total diseased area in each pot)", "setting": "[1]", "result": "A"}, {"measurement": "Evaluation (diseased area of the upper two inoculated leaves)", "setting": "Venturia inaequalis", "result": "A"}, {"measurement": "Evaluation (total diseased area of the first leaves in each pot)", "setting": "Erysiphe graminis", "result": "B (Diseased area of less than 25%)"}, {"measurement": "Evaluation (total diseased area in each pot)", "setting": "Botrytis cinerea", "result": "B (Diseased area of less than 25%)"}]}, {"compound": "COC(=O)NCc1cc(-c2ccc(C)c(C)c2)ccc1OC", "note": "[2-346]", "values": [{"measurement": "Evaluation (total diseased area in each pot)", "setting": "[1]", "result": "B (Diseased area of less than 25%)"}, {"measurement": "Evaluation (diseased area of the upper two inoculated leaves)", "setting": "Venturia inaequalis", "result": "A"}, {"measurement": "Evaluation (total diseased area of the first leaves in each pot)", "setting": "Erysiphe graminis", "result": "A"}, {"measurement": "Evaluation (total diseased area in each pot)", "setting": "Botrytis cinerea", "result": "B (Diseased area of less than 25%)"}]}, {"compound": "COC(=O)NCc1cc(-c2cccc(C(C)=O)c2)ccc1Cl", "note": "[2-450]", "values": [{"measurement": "Evaluation (total diseased area in each pot)", "setting": "[1]", "result": "A"}, {"measurement": "Evaluation (diseased area of the upper two inoculated leaves)", "setting": "Venturia inaequalis", "result": "A"}, {"measurement": "Evaluation (total diseased area of the first leaves in each pot)", "setting": "Erysiphe graminis", "result": "A"}, {"measurement": "Evaluation (total diseased area in each pot)", "setting": "Botrytis cinerea", "result": "A"}]}, {"compound": "COC(=O)NCc1cc(-c2ccc(OC)c(OC)c2)ccc1Cl", "note": "[2-455]", "values": [{"measurement": "Evaluation (diseased area of the upper two inoculated leaves)", "setting": "Venturia inaequalis", "result": "A"}, {"measurement": "Evaluation (total diseased area of the first leaves in each pot)", "setting": "Erysiphe graminis", "result": "B (Diseased area of less than 25%)"}, {"measurement": "Evaluation (total diseased area in each pot)", "setting": "Botrytis cinerea", "result": "B (Diseased area of less than 25%)"}]}, {"compound": "COC(=O)NCc1cc(-c2ccc(C)cc2)ccc1I", "note": "[2-551]", "values": [{"measurement": "Evaluation (diseased area of the upper two inoculated leaves)", "setting": "Venturia inaequalis", "result": "A"}, {"measurement": "Evaluation (total diseased area of the first leaves in each pot)", "setting": "Erysiphe graminis", "result": "B (Diseased area of less than 25%)"}, {"measurement": "Evaluation (total diseased area in each pot)", "setting": "Botrytis cinerea", "result": "B (Diseased area of less than 25%)"}]}, {"compound": "COC(=O)NC(C)c1cccc(-c2ccc(OC)cc2)c1", "note": "(centres unmarked) [3-15, Methyl N-{1-[3-(4-methoxyphenyl)phenyl]ethyl}carbamate]", "values": [{"measurement": "Evaluation (total diseased area in each pot)", "setting": "[1]", "result": "A"}, {"measurement": "melting point", "result": "117 to 119", "unit": "°C"}]}]}
